{
  "source": "patent US20060166182A1",
  "about": "“Tissue and organ preservation, protection and resuscitation” (The Board of Trustees of the University of Ilinois a body …, priority 2002, published 2006)",
  "system": "dogs",
  "assay": "Myocardial tissue oxygen pressure and pH during cardiac (ventricular) fibrillation in bupivacaine and sham treated dogs",
  "type": "in vivo, dog",
  "description": "Non-purpose bred male hounds (22-26 kg) were used. Dogs were fasted overnight. On the day of the example, the dog was anesthetized with 5 mg/kg propofol, intubated and ventilated with 1.5% isoflurane and inspired oxygen concentration of 30%. Catheters were inserted into the femoral artery for blood pressure recording and blood gas sampling, and the femoral vein for fluid and drug administration. Sterile saline was infused intravenously (4 ml·kg^−1·hr^−1) for fluid maintenance.\nAn incision was made along the left 5th intercostal space and the left ventricle exposed. A Paratrend tissue probe (Codman Inc, Newark, N.J.) was calibrated on the day of the study using precision gases. The probe was 0.5 mm in diameter and 2 sensors measuring myocardial tissue oxygen pressure (PmO2) and myocardial pH (pHm) were contained in the final 2 cm. The void surrounding the pHm sensor was filled with acrylamide gel containing phenol red. Changes in hydrogen ion concentration produce color changes in phenol red, which can be detected by the pH fiber optic sensor. A fluorescence method was used to measure the partial pressure of dissolved or gaseous oxygen for the fiber optic PmO2 sensor. The 0%-90% response times for the PmO2 and pHm sensors were 78 s and 70 s, respectively. The probe was inserted into the myocardium in the region between the first and second diagonal branch of the left anterior descending coronary artery, parallel to the surface of the heart 6 mm below the surface using an 18 gauge angiocatheter as an introducer. Mechanical ventilation was adjusted to maintain arterial pCO2 at 35±2 mmHg and inspired oxygen concentration was maintained at 30%, with the balance nitrogen. Body temperature was maintained at 38° C. using a warming pad.\nAfter equilibration of the myocardial tissue probe for 45 minutes, baseline measures of mean arterial pressure (MAP), heart rate, pmO2 and pHm were recorded and an arterial blood gas sample was measured. Each dog received an intravenous infusion of 10 mg/kg bupivacaine over 10 seconds. […] In a preliminary study (early lipid, EL), intervention at the onset of circulatory collapse included an intravenous infusion of either soy lipid emulsion (Intralipid 20%, Fresenius Kabi Clayton, Clayton, N.C.) n=3, or saline, n=3, each administered as a 4 ml/kg bolus (over 2 minutes), followed by a continuous infusion of 0.5 ml·kg^−1·min^−1 for 10 minutes. The protocol was subsequently modified to better simulate a clinical setting, where the start of the infusion might be delayed by several minutes. In this protocol (delayed lipid, DL), internal cardiac massage alone was continued for 10 minutes, then infusion of either the lipid emulsion (n=6) or saline (n=6) was begun as described above. If sinus rhythm returned, internal cardiac massage was continued until MAP reached 30 mmHg and recovery measures of pmO2 and pHm were recorded when blood pressure returned to within 10% of baseline levels. Dogs were killed at the end of the study using a euthanasia solution. The investigators were not blinded to treatment arm.\nData are reported for the DL experiments as mean±SD. pmO2 and pHm were compared between baseline and subsequent treatments within each group using repeated measures analysis of variance with Tukey's tests for post-hoc comparisons. Differences between groups for each treatment were compared by Student's t-test. The proportion of animals surviving bupivacaine challenge in each group was compared in the DL experiment using a z-test. Significance was taken as p<0.05.\nThere were no significant differences between groups. […] Tissue pH decreased a similar amount in half the time in sham treated dogs, and the rate of pH decrease was greater in these dogs compared to bupivacaine treated dogs.\nIn four dogs per group, PmO2 and pHm were allowed to decrease for 15 minutes of cardiac fibrillation at the end of the study.",
  "key": {"[1]": {"settings": "dogs made hypotensive by treatment with bupivacaine"}, "[2]": {"settings": "during cardiac fibrillation, mean ± SD"}, "[3]": {"settings": "during cardiac fibrillation, mean ± SD, P < 0.05 compared to sham"}},
  "data": [
    {"molecule": "CCCCN1CCCCC1C(=O)Nc1c(C)cccc1C", "note": "(stereo not drawn) [Bupivacaine, bupivacaine]", "values": [
      {"measurement": "rate of decrease in pHm, increase in PmCO2 and decrease in PmO2 compared to sham", "setting": "15 minutes of cardiac fibrillation at the end of the study, four dogs per group, FIG. 1", "result": "rate of decrease in pHm and increase in PmCO2 was faster in sham treated dogs, but the rate of decrease in PmO2 was slower compared to bupivacaine treated dogs"},
      {"measurement": "acidosis in myocardial tissue", "setting": "dogs made hypotensive by bupivacaine, prolonged hypotension, hypoperfusion and cardiac tissue hypoxia", "result": "do not develop the expected acidosis in myocardial tissue"},
      {"measurement": "cardiac tissue pO2 (intramyocardial probe)", "setting": "[1]", "result": "undetectable"},
      {"measurement": "systemic blood pressure (BP) after bupivacaine", "setting": "[1]", "result": "< 40", "unit": "mmHg"},
      {"measurement": "PH decrease (myocardial tissue)", "setting": "[2]", "result": "0.31 ± 0.08"},
      {"measurement": "PmO2 decrease", "setting": "[2]", "result": "52 ± 16", "unit": "mmHg"},
      {"measurement": "Rate of decrease (PmO2)", "setting": "[2]", "result": "22 ± 5", "unit": "mmHg/min"},
      {"measurement": "Time (of PmO2 decrease)", "setting": "[2]", "result": "2.5 ± 0.9", "unit": "min"},
      {"measurement": "Rate of Decrease (myocardial pH)", "setting": "[3]", "result": "0.02 ± 0.01", "unit": "min − 1"},
      {"measurement": "Time (of pH decrease)", "setting": "[3]", "result": "13.8 ± 5.1", "unit": "min"},
      {"measurement": "rate of decrease in PmO2 compared to sham treated dogs", "setting": "ventricular fibrillation, Table 2 experiment", "result": "higher rate in bupivacaine treated compared to sham treated dogs, but this difference was not significant"},
      {"measurement": "factor by which the rate of decrease in pH during fibrillation was reduced", "setting": "ventricular fibrillation, versus sham", "result": "four"}
    ]}
  ]
}
